{
  "source": "patent US8378117B2",
  "about": "(priority 2005, dated 2013)",
  "key": {"CB1 receptor [1]": {"target": "T1, CB1 receptor (Homo sapiens, UniProt P21554)", "T1 construct": "expressed in transfected cells", "T1 sequence (P21554 whole entry)": "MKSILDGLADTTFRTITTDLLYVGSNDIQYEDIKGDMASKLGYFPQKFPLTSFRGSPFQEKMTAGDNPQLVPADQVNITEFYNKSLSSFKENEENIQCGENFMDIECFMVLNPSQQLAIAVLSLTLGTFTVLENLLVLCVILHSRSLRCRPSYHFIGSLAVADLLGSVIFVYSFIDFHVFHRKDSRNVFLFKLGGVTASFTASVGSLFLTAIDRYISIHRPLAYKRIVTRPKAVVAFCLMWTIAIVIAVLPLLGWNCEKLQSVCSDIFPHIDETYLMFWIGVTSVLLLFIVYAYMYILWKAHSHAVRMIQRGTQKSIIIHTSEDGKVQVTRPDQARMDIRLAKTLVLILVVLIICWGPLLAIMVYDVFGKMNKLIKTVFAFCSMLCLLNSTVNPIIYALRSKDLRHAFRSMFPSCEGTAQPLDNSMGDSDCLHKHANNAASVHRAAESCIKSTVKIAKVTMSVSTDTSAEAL", "experiment": "Binding assay for CB1 agonists or inverse agonists (SK-N-MC membranes, [3H]-CP-55,940)", "conditions": "for IC50: Cannabinoid CB1 Receptor Binding IC50, calculated by linear regression from percent inhibition at various test concentrations", "summary_of_the_method": "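Membranes from SK-N-MC cells stably expressing human CB1 incubated with compound and [3H]-CP-55,940 ([…]) for 90 min at 30° C in Tris-HCl pH 7.5, MgCl2, EDTA, fatty-acid-free BSA. Non-specific binding defined with 10 uM WIN 55,212; filtration, scintillation count; IC50 by linear regression.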"}, "Male CD-1 mice": {"test_system": "Male CD-1 mice", "experiment": "Oil of mustard induced colitis model", "type": "in vivo", "text": "In the distal colon, the oil of mustard colitis model is characterized by a discontinuous pattern of mucosal epithelial damage, submucosal edema, infiltration of inflammatory cells (including macrophages, neutrophils and lymphocytes) into the mucosa and submucosa, increased wet weight of the colon, shrinkage of the colon length, diarrhea and apparent inflammation (see, Kimball E. S., Palmer J. M., D'Andrea M. R., Homby P. J. and Wade P. R., Acute colitis induction by oil of mustard results in later development of an IBS-like accelerated upper GI transit in mice, Am. J Physiol. Gastrointest. Liver Physiol., 2005, 288: G 1266-1273).\nMale CD-1 mice (Charles River Laboratories, Kingston, N.C.) (9-11 weeks old) and fresh oil of mustard (OM) (allyl isothiocyanate, 98% purity, Sigma-Aldrich St. Louis, Mo.) were used.\nThe mice (9 per treatment group) were briefly anesthetized with ketamine/xylasine (Sigma, St. Louis, Mo.) and a solution of 0.5% OM in 30% ethanol (50 μL) was administered intracolonically (to a depth of 4 cm) via syringe (equipped with a ball-tipped 22 G needle).\nA test compound was orally administered one day prior to colitis induction for assessing a prophylactic regimen or one day post-induction for assessing a therapeutic regimen. A test compound was orally administered daily thereafter. Two days after OM administration, the last test compound dose was administered.\nThree days after OM administration, the animals were sacrificed. The colons were resected, examined for signs of inflammation, weighed after removing fecal contents and the length from the aboral end of the cecum to the anus was measured. The fecal contents were examined for signs of diarrhea. The distal colon between the 1st and the 4th centimeter was removed and placed in 10% neutral buffered formalin for histological analysis.\nThe macroscopic observations of colon inflammation (a measure of colon damage), colon weight and length and stool consistency and appearance were assigned a score and used to evaluate colitis severity.\nThe four observation scores for each colon were combined, whereby a combined score of 0 represents a normal colon and a combined score of 15 represents a maximally affected colon. Statistical analyses were performed in Graphpad Prism 4.0 using ANOVA.\nHistological analyses of tissues consisted of staining paraffin-embedded tissue sections with hematoxylin-eosin dye. The tissues were examined using light microscopy by an investigator who was blinded to the sample groups.\nThe microscopic observations of epithelial damage, cellular infiltration and damage or alteration of smooth muscle architecture (a measure of muscle damage) were assigned a score and used to evaluate colitis severity.\nThe scores for each colon were combined, whereby a combined score of 0 represents a normal colon and a combined score of 9 represents a maximally affected colon. Statistical analyses were performed in Graphpad Prism 4.0 using ANOVA.\nThe Macroscopic Score and Microscopic Score results for each treatment group in the prophylactic and therapeutic regimens were each combined into a mean score and expressed as % inhibition of colitis (% Inh). Test (#) represents the number of experiments at each dose level."}, "CB2 receptor [2]": {"target": "T2, CB2 receptor (Homo sapiens, UniProt P34972)", "T2 construct": "expressed in transfected cells", "T2 sequence (P34972 whole entry)": "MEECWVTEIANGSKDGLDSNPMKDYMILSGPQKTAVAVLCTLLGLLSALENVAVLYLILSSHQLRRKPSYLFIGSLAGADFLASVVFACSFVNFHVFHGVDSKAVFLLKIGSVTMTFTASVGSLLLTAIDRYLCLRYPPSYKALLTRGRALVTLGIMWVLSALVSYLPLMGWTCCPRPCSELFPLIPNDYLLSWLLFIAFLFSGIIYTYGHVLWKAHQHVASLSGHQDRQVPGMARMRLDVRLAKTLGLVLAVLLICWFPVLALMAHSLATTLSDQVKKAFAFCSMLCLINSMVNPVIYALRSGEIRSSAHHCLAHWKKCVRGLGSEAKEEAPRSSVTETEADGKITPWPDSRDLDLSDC", "experiment": "Binding assay for CB2 agonists or inverse agonists (SK-N-MC membranes, [3H]-CP-55,940)", "summary_of_the_method": "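Membranes from SK-N-MC cells stably expressing human CB2 were incubated with radioligand and test compounds for 90 min at 30 °C in Tris-HCl buffer, pH 7.5, with MgCl2, EDTA and fatty-acid-free BSA. Filter-bound radioactivity was counted; IC50 was derived by linear regression of percent inhibition.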"}, "CB1 receptor [3]": {"target": "T1, CB1 receptor", "experiment": "cell-based", "conditions": "CB1 Receptor Functional Agonist EC50, SK-N-MC cells, forskolin induced β-galactosidase activity", "summary_of_the_method": "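SK-N-MC cells stably co-expressing human CB1 and a CRE-β-galactosidase reporter; forskolin-induced β-gal activity measured after compound treatment, as % of vehicle-treated cells (100%). EC50 by linear regression from concentration series; otherwise % change at a single concentration.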"}, "CB2 receptor [4]": {"target": "T2, CB2 receptor", "experiment": "Functional cell-based assay, CB2 receptor mediated change in CRE β-gal expression (SK-N-MC cells)", "conditions": "CB2 Receptor Functional Agonist EC50, forskolin induced β-galactosidase activity, SK-N-MC cells", "text": "The CB1 and CB2 receptors are G-protein coupled receptors (GPCR), which influence cell function via the Gi-protein. These receptors modulate the activity of intracellular adenylate cyclase, which in turn produces the intracellular signal messenger cyclic-AMP (cAMP).\nAt baseline, or during non-ligand bound conditions, these receptors are constitutively active and tonically suppress adenylate cyclase activity. The binding of an agonist causes further receptor activation and produces additional suppression of adenylate cyclase activity. The binding of an inverse agonist inhibits the constitutive activity of the receptors and results in an increase in adenylate cyclase activity.\nBy monitoring intracellular adenylate cyclase activity, the ability of compounds to act as agonists or inverse agonists can be determined.\nTest compounds were evaluated in SK-N-MC cells which, using standard transfection procedures, were stably transfected with human cDNA for pcDNA3-CRE β-gal and pcDNA3 CB1 receptor (human) or pcDNA3 CB2 receptor (human). By expressing CRE β-gal, the cells produced β-galactosidase in response to CRE promoter activation by cAMP. Cells expressing CRE β-gal and either the human CB1 or CB2 receptor will produce less β-galactosidase when treated with a CB1/CB2 agonist and will produce more β-galactosidase when treated with a CB1/CB2 inverse agonist.\nThe cells were grown in 96-well plates under standard cell culture conditions at 37° C. in a 5% CO2 atmosphere and culture media (wherein the media was supplemented with 2 mM L-glutamine, […] sodium pyruvate, 10% FBS (fetal bovine serum) and antibiotics).\nFor cells expressing CRE β-gal and the CB2 receptor, CB2 agonists reduced β-galactosidase activity in a dose-dependent manner and CB2 inverse agonists increase β-galactosidase activity in a dose-dependent manner.\nThe change in forskolin induced β-galactosidase activity was determined by setting a vehicle treated cell's activity value at 100% and expressing the β-galactosidase activity measured in a corresponding compound treated cell as a percent of the vehicle treated cell activity.\nThe EC50 value for functional activity for compounds tested was calculated by linear regression and was obtained from studies in which varying compound concentrations were used."}, "[5]": {"conditions": "test concentration 0.2 μM (footnote 2), 0.2 µM"}, "[6]": {"conditions": "Therapeutic Regimen, 5 mg/kg oral, 5 mg/kg"}},
  "data": [
    {"smiles": "C[C@H](NS(=O)(=O)/C=C/c1n[nH]c2c1CCCCC2Cc1ccc(F)cc1)c1ccccc1", "note": "(stereo partly drawn) [Cpd 108, (2E)-2-[8-(4-fluoro-benzyl)-1,4,5,6,7,8-hexahydro-cycloheptapyrazol-3-yl]-ethenesulfonic acid [(1S)-1-phenyl-ethyl]-amide]", "values": [
      {"measurement": "inhibition at 0.5 µM", "setting": "CB1 receptor [1]; read-out: CB1 receptor binding percent inhibition, test concentration 0.5 μM (footnote 10)", "result": 33, "unit": "%"},
      {"measurement": "inhibition at 1 µM", "setting": "CB1 receptor [1]; read-out: CB1 receptor binding percent inhibition, test concentration 1 μM (footnote 1)", "result": 55, "unit": "%"},
      {"measurement": "CB1 receptor binding percent inhibition", "setting": "CB1 receptor [1]; test concentration not stated", "result": 44, "unit": "%"},
      {"measurement": "% Inh (Macro), % inhibition of colitis, macroscopic score", "setting": "Male CD-1 mice; Prophylactic Regimen, 2.5 mg/kg oral", "result": "51.2 ± 19.1", "unit": "%"},
      {"measurement": "% Inh (Macro), % inhibition of colitis, macroscopic score", "setting": "Male CD-1 mice; Prophylactic Regimen, 5 mg/kg oral", "result": "13.4 ± 13.3", "unit": "%"},
      {"measurement": "CB2 receptor binding percent inhibition", "setting": "CB2 receptor [2]; test concentration not stated", "result": 100, "unit": "%"}
    ]},
    {"smiles": "C[C@H](NC(=O)c1nn(-c2cc(Cl)ccc2Cl)c2c1CCCC/C2=C\\c1ccc(Cl)cc1)c1ccccc1", "note": "[Cpd 198, (8E)-8-(4-chloro-benzylidene)-1-(2,5-dichloro-phenyl)-1,4,5,6,7,8-hexahydro-cycloheptapyrazole-3-carboxylic acid [(1S)-1-phenyl-ethyl]-amide]", "values": [
      {"measurement": "EC50", "setting": "CB1 receptor [3]", "result": 20, "unit": "nM"},
      {"measurement": "IC50", "setting": "CB1 receptor [1]", "result": 20, "unit": "nM"},
      {"measurement": "inhibition at 0.2 µM", "setting": "CB1 receptor [1]; read-out: CB1 receptor binding percent inhibition", "result": 87, "unit": "%"},
      {"measurement": "% Inh (Macro), % inhibition of colitis, macroscopic score", "setting": "Male CD-1 mice; Therapeutic Regimen, 5 mg/kg oral", "result": "41.0 ± 17", "unit": "%"},
      {"measurement": "inhibition at 0.2 µM", "setting": "CB2 receptor [2]; read-out: CB2 receptor binding percent inhibition, test concentration 0.2 μM (footnote 2)", "result": 68, "unit": "%"}
    ]},
    {"smiles": "O=C(N[C@@H](CO)c1ccccc1)c1n[nH]c2c1CCCCC2Cc1cccc(Cl)c1", "note": "(stereo in doubt) [Cpd 228, (8S*)-8-(3-chloro-benzyl)-1,4,5,6,7,8-hexahydro-cycloheptapyrazole-3-carboxylic acid [(1R)-2-hydroxy-1-phenyl-ethyl]-amide]", "values": [
      {"measurement": "CB1 receptor binding percent inhibition", "setting": "CB1 receptor [1]; [5]", "result": "^(2)0%"},
      {"measurement": "% Inh (Macro), % inhibition of colitis, macroscopic score", "setting": "Male CD-1 mice; [6]", "result": "51.7 ± 13.2", "unit": "%"},
      {"measurement": "CB2 receptor binding percent inhibition", "setting": "CB2 receptor [2]; [5]", "result": "^(2)45%"}
    ]},
    {"smiles": "O=C(N[C@@H](CO)c1ccccc1)c1n[nH]c2c1CCCCC2Cc1cccc(Cl)c1", "note": "(stereo in doubt) [Cpd 229, (8R*)-8-(3-chloro-benzyl)-1,4,5,6,7,8-hexahydro-cycloheptapyrazole-3-carboxylic acid [(1R)-2-hydroxy-1-phenyl-ethyl]-amide]", "values": [
      {"measurement": "EC50", "setting": "CB1 receptor [3]", "result": 60, "unit": "nM"},
      {"measurement": "IC50", "setting": "CB1 receptor [1]", "result": 60, "unit": "nM"},
      {"measurement": "CB1 receptor binding percent inhibition", "setting": "CB1 receptor [1]; [5]", "result": 73, "unit": "%"},
      {"measurement": "EC50", "setting": "CB2 receptor [4]", "result": 2, "unit": "nM"},
      {"measurement": "% Inh (Macro), % inhibition of colitis, macroscopic score", "setting": "Male CD-1 mice; [6]", "result": "56.9 ± 11.6", "unit": "%"},
      {"measurement": "IC50", "setting": "CB2 receptor [2]; Cannabinoid CB2 Receptor Binding IC50, calculated by linear regression from percent inhibition at various test concentrations", "result": 20, "unit": "nM"},
      {"measurement": "CB2 receptor binding percent inhibition", "setting": "CB2 receptor [2]; [5]", "result": 95, "unit": "%"}
    ]}
  ]
}
